This assay deals with OVCAR-5 complex spheroids, viability. Briefly: Anticancer human tumor OVCAR-5 cell line growth inhibition.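 For all read-outs here: spheroids exposed to agents for seven days.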 The conditions noted are these: for viability, T/C: stronger effect = lower value. An excerpt: Multicellular complex tumor spheroid response to LSD1 Inhibitor Iadademstat in combination with a variety of drugs and investigational agents in selected tumor cell lines
The current study was undertaken to assess response to LSD1 inhibitors in combination with standard-of-care drugs and investigational agents in solid tumor complex spheroid models as well as in the K-562 leukemia. Complex spheroids include a stromal component modeled by human endothelial cells (HUVEC) and fibroblasts modeled by human mesenchymal stem cells (MSCs). The concentration ranges selected for each drug and investigational agent were based upon clinically achievable concentrations if the clinical Cmax of the agent was known.
Compounds. The drugs and investigational agents used in this study are listed on Table 1. All of the agents used, including staurosporine (NSC755774) and gemcitabine (NSC613327), were obtained from the Developmental Therapeutics Program, NCI. FDA-approved anticancer drugs are available from the NCI at http://dtp.nci.nih.gov/branches/dscb/oncology_drugset_explanation.html. Drugs and investigational agents were >95% pure by proton nuclear magnetic resonance (NMR) and liquid chromatography/mass spectrometry (LC/MS). Stock solutions were prepared at 400x in DMSO, stored at -70 degrees C, and diluted in fresh medium prior to their use. The final concentration of DMSO in cell culture wells never exceeded 0.25% (v/v). The FDA-approved anticancer drug set is available from the Developmental Therapeutics Program at https://dtp.cancer.gov/organization/dscb/obtaining/available_plates.htm. All drugs and investigational agents were tested over a range starting from a high concentration at or near the clinical Cmax and decreasing in half-log increments. If the clinical Cmax for an agent had not been determined, the highest concentration tested was 10 microM.
Cell Lines. The patient-derived cancer cell (PDC) lines: 292921-168-R-J2-PDC, K24384-001-R-PDC, and 521955-158-R2-J5-PDC pancreatic carcinomas, 556581-035-R-J1 ovarian carcinoma, 324938-238-R-J1-PDC, 855422-203-R-J1-PDC and 883617-216-R-J1-PDC urothelial bladder carcinomas, 743489-274-T-PDC renal cell carcinoma, 138582-R-J1 Merkel cell tumor, K60290-347-R-J1 and K57222-313-R-J1-PDC glioblastomas, 653999-131-R-J2-PDC, LG0703-F948-PDC, and 349418-098-R-PDC non-small cell lung carcinomas, 885512-296-R-J2-PDC, 171881-019-R-J1-PDC breast carcinomas and 186277-243-T-J2-PDC and 233499-124-R-J2-PDC colon carcinomas were obtained from the NCI Patient-Derived Models Repository (PDMR, https://pdmr.cancer.gov). The established cell lines NCI/ADR-RES (RRID:CVCL_14520 and OVCAR-5 (RRID:CVCL_1628) ovarian carcinomas, 786-O (RRID:CVCL_1051) and A498 […] renal cell carcinoma, NCI-H211 (ATCC, cat. CRL-5824; RRID:CVCL_1529), NCI-H196 (ATCC, cat. CRL-5823, RRID:CVCL_1509), SW 1271 (ATCC, cat. CRL-2177, RRID:CVCL_1716) and NCI-H1876 (ATCC, cat. CRL-5902, RRID:CVCL_1503) small cell lung carcinomas, MDA-MB-231 (RRID:CVCL_0062) and MDA-MB-468 (RRID:CVCL_0419)breast carcinomas (10-12). Pooled donor human umbilical vein endothelial cells (HUVEC, Lonza, cat. CC-2519) and human mesenchymal stem cells (hMSC, Lonza, cat. PT-2501) were purchased from Lonza (Walkersville, MD).
Cell Culture. All cells were maintained in an incubator at 37 degrees C and 5% CO2 with 95% humidity. The PDC lines were cultured according to standard operating procedures established by the NCI PDMR (https://pdmr.cancer.gov). Briefly all PDCs were thawed and cultured in Matrigel-coated flasks prepared with a working solution of 1X Ham's F-12 nutrient mix, without supplementation (Invitrogen, Waltham, MA, cat. 11765054), 100 U/mL penicillin-streptomycin (Invitrogen, cat. 15140122), and 2.5% Matrigel (Corning Inc., Corning, NY, cat. 354248) for the first three passages. […]

The mark [1] stands for this setting: curve of first compound, second compound 0.1 µM.
Where [2] appears, read: curve of first compound, second compound 0.316 µM.
The mark [3] stands for this setting: curve of first compound, second compound 1 µM.
Where [4] appears, read: curve of first compound, second compound 3.16 µM.
The mark [5] stands for this setting: curve of first compound, second compound 10 µM.

SMILES strings stand for the structures. pIC50: −log10 of the molar value. Where “and” joins values, the source holds several entries; their conditions need not be identical. Identical values can stand only once. Some results are limits rather than exact numbers.

For orientation: pIC50 means the IC50 on a negative log10 scale, so that one unit is a factor of ten. The viability, T/C is the result in the treated group divided by that in the control group, in per cent. `CCc1c2c(nc3ccc(O)cc13)-c1cc3c(c(=O)n1C2)COC(=O)[C@]3(O)CC` + NC1CCC(NC2CC2c2ccccc2)CC1: the negative-log IC50 (pIC50) reads like this: under setting [1], over 9.02; under setting [2], over 9.02; under setting [3], over 9.02; under setting [4], over 9.02; under setting [5], over 9.02. Also, the viability, T/C (second compound 0.1 µM, first compound 0.000949 µM) was 36.5%; the viability, T/C (second compound 0.1 µM, first compound 0.003 µM) was 20.8%; the viability, T/C (second compound 0.1 µM, first compound 0.00949 µM) is 9.21%; the viability, T/C (second compound 0.1 µM, first compound 0.03 µM) is 4.18%; the viability, T/C (second compound 0.1 µM, first compound 0.0949 µM) was 1.08%; the viability, T/C (second compound 0.1 µM, first compound 0.3 µM) is 0.71%. In addition, the viability, T/C runs as follows: (second compound 0.316 µM, first compound 0.000949 µM) 37%; (second compound 0.316 µM, first compound 0.003 µM) 21.9%; (second compound 0.316 µM, first compound 0.00949 µM) 10.2%; (second compound 0.316 µM, first compound 0.03 µM) 5.04%; (second compound 0.316 µM, first compound 0.0949 µM) 1.52%; (second compound 0.316 µM, first compound 0.3 µM) 0.83%. In addition, the viability, T/C (second compound 1 µM, first compound 0.000949 µM) is 39.9%; the viability, T/C (second compound 1 µM, first compound 0.003 µM) was 25.3%; the viability, T/C (second compound 1 µM, first compound 0.00949 µM) was 11.1%; the viability, T/C (second compound 1 µM, first compound 0.03 µM) is 5.17%; the viability, T/C (second compound 1 µM, first compound 0.0949 µM) was 1.3%; the viability, T/C (second compound 1 µM, first compound 0.3 µM) is 0.78%. Also, the viability, T/C by setting is: (second compound 3.16 µM, first compound 0.000949 µM) 41.6%; (second compound 3.16 µM, first compound 0.003 µM) 24.6%; (second compound 3.16 µM, first compound 0.00949 µM) 12.8%; (second compound 3.16 µM, first compound 0.03 µM) 5.77%; (second compound 3.16 µM, first compound 0.0949 µM) 1.49%; (second compound 3.16 µM, first compound 0.3 µM) 0.71%. For the same molecule, the viability, T/C (second compound 10 µM, first compound 0.000949 µM) was 41%; the viability, T/C (second compound 10 µM, first compound 0.003 µM) was 25.4%; the viability, T/C (second compound 10 µM, first compound 0.00949 µM) was 12.4%; the viability, T/C (second compound 10 µM, first compound 0.03 µM) was 5.97%; the viability, T/C (second compound 10 µM, first compound 0.0949 µM) was 1.81%; the viability, T/C (second compound 10 µM, first compound 0.3 µM) is 2.3%.
With `CC[C@@]1(O)C(=O)OCc2c1cc1n(c2=O)Cc2cc3c(CN(C)C)c(O)ccc3nc2-1` + NC1CC1c1ccc(-c2cccc(O)c2)cc1, the pIC50 is 8.52 under setting [1]; 8.47 under setting [2]; 8.64 under setting [3]; 8.64 under setting [4]; 8.63 under setting [5]. In addition, the viability, T/C (second compound 0.1 µM, first compound 0.000316 µM) is 96.1%; the viability, T/C (second compound 0.1 µM, first compound 0.001 µM) is 83.5%; the viability, T/C (second compound 0.1 µM, first compound 0.00316 µM) was 47.5%; the viability, T/C (second compound 0.1 µM, first compound 0.01 µM) was 32.3%; the viability, T/C (second compound 0.1 µM, first compound 0.0316 µM) is 35.6%; the viability, T/C (second compound 0.1 µM, first compound 0.1 µM) was 18.8%. For the same molecule, the viability, T/C by setting is: (second compound 0.316 µM, first compound 0.000316 µM) 102%; (second compound 0.316 µM, first compound 0.001 µM) 87.3%; (second compound 0.316 µM, first compound 0.00316 µM) 48.9%; (second compound 0.316 µM, first compound 0.01 µM) 34.3%; (second compound 0.316 µM, first compound 0.0316 µM) 33%; (second compound 0.316 µM, first compound 0.1 µM) 19.8%. Also, the viability, T/C is 101% (second compound 1 µM, first compound 0.000316 µM); 78.3% (second compound 1 µM, first compound 0.001 µM); 38.6% (second compound 1 µM, first compound 0.00316 µM); 30.5% (second compound 1 µM, first compound 0.01 µM); 34.4% (second compound 1 µM, first compound 0.0316 µM); 18.4% (second compound 1 µM, first compound 0.1 µM). Also, the viability, T/C is 88.1% (second compound 3.16 µM, first compound 0.000316 µM); 78.8% (second compound 3.16 µM, first compound 0.001 µM); 37.9% (second compound 3.16 µM, first compound 0.00316 µM); 33.1% (second compound 3.16 µM, first compound 0.01 µM); 33.4% (second compound 3.16 µM, first compound 0.0316 µM); 18.7% (second compound 3.16 µM, first compound 0.1 µM). Further, the viability, T/C is, setting by setting: (second compound 10 µM, first compound 0.000316 µM) 93.3%; (second compound 10 µM, first compound 0.001 µM) 75.6%; (second compound 10 µM, first compound 0.00316 µM) 40.1%; (second compound 10 µM, first compound 0.01 µM) 31.8%; (second compound 10 µM, first compound 0.0316 µM) 37.7%; (second compound 10 µM, first compound 0.1 µM) 20.7%.
On to `COc1cc(Nc2ncc3c(n2)-c2ccc(Cl)cc2C(c2c(F)cccc2OC)=NC3)ccc1C(=O)O`, for which the viability, T/C reads like this: (compound 0.00316 µM) 94.1% and 95.2%; (compound 0.01 µM) 88.5% and 86.9%; (compound 0.0316 µM) 74.8% and 74.2%; (compound 0.1 µM) 59.8% and 52.2%; (compound 0.316 µM) 57% and 49%; (compound 1 µM) 53.1% and 49.2%. Further, the negative-log IC50 (pIC50) (curve of compound) was < 6.00 and 6.60.
For `Nc1ccccc1NC(=O)c1ccc(CNC(=O)OCc2cccnc2)cc1`, the viability, T/C is 102% and 86.1% (compound 0.00949 µM); 81.6% and 80.2% (compound 0.03 µM); 63.8% and 59.6% (compound 0.0949 µM); 41.9% and 34.8% (compound 0.3 µM); 23.9% and 19.3% (compound 0.949 µM); 8.2% and 8.35% (compound 3 µM). Further, for the setting “curve of compound”, the pIC50 was 6.71 and 6.82.

The values are drawn from PubChem BioAssay AID1918956 (Molecular Pharmacology Branch, DTP, NCI, 2023).
